Laboratory results from patent US20040009904A1, “APL immunoreactive peptides, conjugates thereof and methods of treatment for aPL antibody-mediated pathologies” (priority 1995, published 2004).
Bridge positions count the residues as written; N and C are the ends. Peptide text beside a SMILES is read from it.

What was measured:
[1] = test system: ACA-7004; experiment: Competitive binding peptide ACA ELISA, cardiolipin/β2-GPI-coated plates; set-up: species or system human; conditions: peptide 1 mg/mL, affinity purified antibody
How it was run: (§1)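 Monomeric peptides are tested for their ability to block aPL antibody binding to β2-GPI/cardiolipin-coated wells, with IgG-depleted human serum providing β2-GPI. The concentration giving 50% inhibition is taken at half-maximal absorbance (550 nm).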

[2] = test system: ACA-6903; experiment: as above; set-up: species or system human; conditions: peptide 1 mg/mL, affinity purified antibody
How it was run: as §1

[3] = test system: ACA-6501; experiment: Phage-ELISA; format: binding, human; conditions: phage clones coated on wells, affACA-6501 2.5 μg/mL
Protocol: This method of selecting phage requires very tight binding of the insert to the screening antibody. Phage are directly coated onto wells of a microtitration plate and incubated with the screening antibody. Following washes to remove unbound antibody, an anti-human IgG alkaline phosphatase conjugate is added to bind any aPL antibodies bound to the phage. APL antibodies are then detected by adding a calorimetric substrate to the well which will react with alkaline phosphatase according to methods well known in the art.
Three mL cultures were prepared from 35 clones previously isolated with affinity purified ACA-6501 in several phage library screens as well as one fUSE 2 phage clone lacking a peptide insert which was used as a control. After centrifugation for 3 minutes at 17,000×g, 100 μL from each phage supernatant (adjusted to −2×10^11 particles/mL, based on absorbance) was added to microtitration plate wells (Falcon, Becton-Dickinson Labware, Lincoln Park, N.Y.) and allowed to incubate overnight at 4° C. Following four washes with TBS 7.4, the plate was blocked with 125 μL of 0.5% BSA/TBS for 1 hour at RT. After another four TBS washes, 100 μL of affACA-6501 previously diluted to 2.5 μg/mL in TBS/BSA was added to each well and allowed to incubate 1 hour at 37° C. Following an additional four washes, 100 μL anti-human IgG diluted 1:1000 in TBS/0.5% Tween was added to each well. After 1 hour at RT, enzyme substrate was added and the incubation allowed to proceed for 2 hours. Following the addition of 50 μL 0.2 M Na2HPO4 to stop the reaction, absorbance was measured at 550 nm in the automated plate absorbance reader. […] The sequences for these clones are showvn in Table 2.

Q: `CC(C)C[C@@H]1NC(=O)[C@H](CC(C)C)NC(=O)[C@H](CC(C)C)NC(=O)[C@@H](NC(=O)[C@@H]2CCCN2C(=O)CNC(=O)[C@H](C)N)CSSC[C@@H](C(=O)N2CCC[C@H]2C(=O)NCC(=O)O)NC(=O)[C@H](CCCNC(=N)N)NC(=O)[C@H](CC(=O)O)NC(=O)[C@@H]2CCCN2C(=O)[C@H](C)NC1=O` [3B10, AGPCLLLAPDRCPG] (H-AGPCLLLAPDRCPG-OH; disulfide 4-12) was tested. Which “Percent Inhibition of AffACA by Peptide Monomers, 7004” value [1] did it give?
A: Its value is 87%.

Q: What about the “Percent Inhibition of AffACA by Peptide Monomers, 6903” value [2] of the same molecule?
A: The value was 69%.

Q: What about the “signal in the phage-ELISA” value [3] of the same molecule?
A: Its value is “significant signals”.
